Experiments:
Experiment in all cases: relative viability (nuclei count vs DMSO), 5 days (fraction); higher = more cells survive
[1] = compound: CN1CCN(c2ccc3nc(-c4c(N)c5c(F)cccc5[nH]c4=O)[nH]c3c2)CC1 [Dovitinib] + Cc1nc(Nc2ncc(C(=O)Nc3c(C)cccc3Cl)s2)cc(N2CCN(CCO)CC2)n1 [Dasatinib] (partner 0.075 µM)
In short: (§1)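 Values are medians from duplicate plates. Each reflects relative viability, defined as the nuclei count of treated wells over that of vehicle wells. Lung cancer cell lines in 1536-well plates were pin-tool dosed one day after seeding with one drug alone or with a fixed anchor-drug dose plus five library-drug doses (not always all listed) in √10 steps, then fixed, stained and imaged at 4× after 5 days.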

[2] = compound: CN1CCN(c2ccc3nc(-c4c(N)c5c(F)cccc5[nH]c4=O)[nH]c3c2)CC1 [Dovitinib] + CC(=O)c1c(C)c2cnc(Nc3ccc(N4CCNCC4)cn3)nc2n(C2CCCC2)c1=O [Palbociclib] (partner 0.5 µM)
In short: as §1

[3] = compound: CN1CCN(c2ccc3nc(-c4c(N)c5c(F)cccc5[nH]c4=O)[nH]c3c2)CC1 [Dovitinib] + Cc1nc(NC(=O)N2CCC[C@H]2C(N)=O)sc1-c1ccnc(C(C)(C)C(F)(F)F)c1 [Alpelisib] (partner 2 µM)
In short: as §1

[4] = compound: CN1CCN(c2ccc3nc(-c4c(N)c5c(F)cccc5[nH]c4=O)[nH]c3c2)CC1 [Dovitinib] + CC(C)C[C@H](NC(=O)[C@H](Cc1ccccc1)NC(=O)c1cnccn1)B(O)O [Bortezomib] (partner 0.002 µM)
In short: as §1

Cell Line | relative viability ([1]; first compound 0.02 µM) | relative viability ([1]; first compound 0.06325 µM) | relative viability ([1]; first compound 0.2 µM) | relative viability ([1]; first compound 0.6325 µM) | relative viability ([1]; first compound 2 µM) | relative viability ([2]; first compound 0.02 µM) | relative viability ([2]; first compound 0.06325 µM) | relative viability ([2]; first compound 0.2 µM) | relative viability ([2]; first compound 0.6325 µM) | relative viability ([2]; first compound 2 µM) | relative viability ([3]; first compound 0.02 µM) | relative viability ([3]; first compound 0.06325 µM) | relative viability ([3]; first compound 0.2 µM) | relative viability ([3]; first compound 0.6325 µM) | relative viability ([3]; first compound 2 µM) | relative viability ([4]; first compound 0.02 µM) | relative viability ([4]; first compound 0.06325 µM) | relative viability ([4]; first compound 0.2 µM) | relative viability ([4]; first compound 0.6325 µM) | relative viability ([4]; first compound 2 µM)
LU99A | 0.508 | 0.448 | 0.572 | 0.517 | 0.46 | 0.388 | 0.37 | 0.387 | 0.423 | 0.406 | 0.492 | 0.561 | 0.43 | 0.461 | 0.559 | 1.15 | 1.08 | 0.987 | 1.05 | 1.32
NCI-H1355 | 0.678 | 0.673 | 0.723 | 0.744 | 0.771 | 0.416 | 0.41 | 0.465 | 0.397 | 0.415 | 0.797 | 0.796 | 0.864 | 0.764 | 0.82 | 1.31 | 1.19 | 1.17 | 1.2 | 1.42
NCI-H520 | 0.165 | 0.188 | 0.235 | 0.179 | 0.218 | 0.206 | 0.213 | 0.214 | 0.266 | 0.162 | 0.794 | 0.988 | 0.935 | 0.86 | 0.769 | 0.527 | 0.725 | 0.63 | 0.488 | 0.348
NCI-H661 | 0.85 | 0.829 | 1.01 | 0.984 | 0.936 | 0.414 | 0.453 | 0.429 | 0.426 | 0.432 | 0.706 | 0.661 | 0.885 | 0.898 | 0.573 | 0.852 | 0.746 | 0.937 | 0.934 | 0.85
NCI-H650 | 0.48 | 0.383 | 0.49 | 0.5 | 0.432 | 0.321 | 0.333 | 0.359 | 0.317 | 0.357 | 1.13 | 0.972 | 1.07 | 0.997 | 1.2 | 0.883 | 0.711 | 0.729 | 0.709 | 0.806
NCI-H647 | 0.151 | 0.152 | 0.209 | 0.171 | 0.21 | 0.337 | 0.427 | 0.378 | 0.402 | 0.431 | 0.966 | 1.15 | 1.34 | 1.19 | 0.961 | 0.993 | 1.08 | 1.13 | 0.897 | 0.667
201T | 0.571 | 0.565 | 0.581 | 0.566 | 0.538 | 0.366 | 0.379 | 0.341 | 0.371 | 0.367 | 0.979 | 0.975 |  | 1.01 | 0.996 | 1.05 | 1.04 |  | 1.1 | 1.09
NCI-H838 | 0.293 | 0.269 | 0.31 | 0.273 | 0.288 | 0.231 | 0.209 | 0.217 | 0.217 | 0.228 | 0.949 | 1.04 | 1.01 | 0.936 | 0.938 | 0.639 | 0.699 | 0.851 | 0.76 | 0.758
LK-2 | 0.282 | 0.242 | 0.281 | 0.325 | 0.396 | 0.648 | 0.734 | 0.676 | 0.646 | 0.854 | 1.22 | 1.06 | 0.974 | 0.959 | 0.628 |  |  |  |  | 
NCI-H1944 | 0.214 | 0.21 | 0.208 | 0.212 | 0.228 | 0.305 | 0.356 | 0.323 | 0.346 | 0.308 | 0.822 | 0.846 | 0.809 | 0.777 | 0.858 |  |  |  |  | 
NCI-H1650 | 0.335 | 0.26 | 0.365 | 0.348 | 0.384 | 0.392 | 0.338 | 0.328 | 0.349 | 0.386 |  |  |  |  |  | 0.209 | 0.206 | 0.201 | 0.189 | 0.203
NCI-H596 | 0.646 | 0.523 | 0.552 | 0.647 | 0.534 |  |  |  |  |  | 0.462 | 0.542 | 0.563 | 0.499 | 0.457 | 1.19 | 1.03 | 0.834 | 1.04 | 1.07
SK-MES-1 | 0.349 | 0.426 | 0.417 | 0.414 | 0.477 | 0.35 | 0.378 | 0.306 | 0.37 | 0.374 | 0.852 | 0.89 | 0.907 | 0.936 | 0.971 |  |  |  |  | 
NCI-H2170 | 0.552 | 0.566 | 0.608 | 0.599 | 0.552 | 0.419 | 0.448 | 0.399 | 0.39 | 0.407 | 0.672 | 0.807 | 0.889 | 0.77 | 0.83 |  |  |  |  | 
NCI-H358 | 0.154 | 0.177 | 0.176 | 0.184 | 0.179 | 0.153 | 0.141 | 0.118 | 0.135 | 0.135 | 0.941 | 0.905 | 0.849 | 0.84 | 0.804 |  |  |  |  | 
NCI-H1563 | 0.478 | 0.475 | 0.469 | 0.507 | 0.509 |  |  |  |  |  | 0.943 | 0.893 | 1.06 | 0.908 | 0.902 | 0.962 | 0.879 | 0.977 | 0.938 | 0.908
EBC-1 |  |  |  |  |  |  |  |  |  |  | 0.951 | 0.781 | 0.925 | 0.73 | 0.708 | 0.543 | 0.488 | 0.571 | 0.564 | 0.587
Calu-6 |  |  |  |  |  |  |  |  |  |  | 0.943 | 0.97 | 0.872 | 0.925 | 1.01 | 1.05 | 0.992 | 1 | 0.993 | 0.98
HCC-44 |  |  |  |  |  | 0.93 | 0.994 | 0.969 | 0.985 | 0.95 | 0.721 | 0.783 | 0.835 | 0.856 | 0.747 | 0.822 | 0.836 | 0.867 | 0.894 | 0.916
